Laboratory results as given in US20230157350A1, “DELIVERY SYSTEMS AND METHODS OF MAKING THE SAME” (British American Tobacco (Investments) Limited, priority 2020, published 2023).
Values belong to the compound of their own block, whether it stands above or below them.

Columns and labels:
[1] = Smoking sensory evaluation of cigarettes by testers (1 to 10 scale, N=28); type: in vivo; conditions: smoked cigarette
Description: Test cigarettes were produced using the following amounts of WS-3 applied to the aerosol-generating material in the tobacco rod in the form of a solution:
Various cigarettes were prepared and smoked so that the (1) menthol-family flavor intensity; (2) cooling sensation; and (3) tobacco taste intensity could each be evaluated by testers on a 1 to 10 scale (N=28).

[2] = Sniffing Analysis of uncombusted tobacco, Quantitative Descriptive Profiling (ISO 13299)
Description: Further samples were analyzed using “Sniffing Analysis”, an applied sensory method for the assessment of characterizing flavors of standard products, by sniffing the tobacco itself, without combusting it, using a method as provided in the international standard ISO 13299. The data is set out in Tables 4 and 5, showing the results of Quantitative Descriptive Profiling (QDP), providing a score of between 0 and 5 for perception of the different tobacco typical and non-tobacco typical flavor notes
A critical intensity of a Mean >1.0 is highlighted in bold in Tables 4 and 5. On the 0-5 category scale, none of the prototype cigarette of “W53” or “WS23” show any critical intensity above 1.0 for the Non-Tobacco Typical Flavor Notes (see Table 5).

[3] = Stability and migration in the delivery system; type: physicochemical
Excerpt: The menthol in a pack of mentholated cigarettes, for example, is contained by an outer plastic packaging film. Within this packaging film, the menthol migrates and equilibrates. However, once this outer packaging film is removed (upon opening the pack for the first time), the menthol will begin to be lost. This migration and loss of the volatile menthol needs to be factored in when deciding how much menthol to include in each delivery system and where to apply it. It also means that the menthol delivery may vary depending on where the menthol is located when the delivery system is used.
This means that greater significance is attached to the amount of WS-3 incorporated into the delivery system, as well as where and how it is incorporated.
In some embodiments, the cooling agent WS-3 is present in the aerosol-generating material. In some embodiments, the cooling agent WS-3 is applied to the aerosol-generating material. As the delivery system is used, the WS-3 is volatilized and is entrained in the aerosol flow through the delivery system. […] This is despite the high temperatures seen in the rods of aerosol-generating material in combustible aerosol provision system, such as cigarettes. This is also despite the relatively low volatility of the WS-3 compared to some cooling agents used in delivery systems, such as menthol.

Solubility in solvents = type: physicochemical
[4] = Smoking sensory evaluation of cigarettes by testers (1 to 10 scale, N=28); type: in vivo; conditions: 1 mg

Migration within the delivery system or packaging during storage [3]: highly volatile and migrates
Compound: CC1CCC(C(C)C)C(O)C1 (stereo not drawn) [Menthol]
Cooling Sensation ([1]; 1.5 mg menthol (low)): 4.8 | Menthol-Family Flavor Intensity ([1]; 1.5 mg menthol (low)): 4.1 | Tobacco Taste Intensity ([1]; 1.5 mg menthol (low)): 3.1 | Cooling Sensation ([1]; 3.5 mg menthol (medium)): 7.6 | Menthol-Family Flavor Intensity ([1]; 3.5 mg menthol (medium)): 7.0 | Tobacco Taste Intensity ([1]; 3.5 mg menthol (medium)): 2.1 | Cooling Sensation ([1]; 5.0 mg menthol (high)): 8.8 | Menthol-Family Flavor Intensity ([1]; 5.0 mg menthol (high)): 8.0 | Tobacco Taste Intensity ([1]; 5.0 mg menthol (high)): 1.4 | Non-Tobacco Typical Flavor Note: Alcoholic ([2]; 4 mg, score 0-5): .1 | Non-Tobacco Typical Flavor Note: Cacao ([2]; 4 mg, score 0-5): .0 | Non-Tobacco Typical Flavor Note: Caramel ([2]; 4 mg, score 0-5): .1 | Non-Tobacco Typical Flavor Note: Citrus ([2]; 4 mg, score 0-5): .0 | Non-Tobacco Typical Flavor Note: Floral ([2]; 4 mg, score 0-5): .0 | Non-Tobacco Typical Flavor Note: Fruity ([2]; 4 mg, score 0-5): .0 | Non-Tobacco Typical Flavor Note: Honey ([2]; 4 mg, score 0-5): .1 | Non-Tobacco Typical Flavor Note: Licorice ([2]; 4 mg, score 0-5): .0 | Non-Tobacco Typical Flavor Note: Minty ([2]; 4 mg, score 0-5): .9 | Non-Tobacco Typical Flavor Note: Spicy ([2]; 4 mg, score 0-5): .0 | Non-Tobacco Typical Flavor Note: Vanilla ([2]; 4 mg, score 0-5): .1 | Tobacco Typical Flavor Note: Animalic ([2]; 4 mg, score 0-5): 0.0 | Tobacco Typical Flavor Note: Black Tea ([2]; 4 mg, score 0-5): 0.0 | Tobacco Typical Flavor Note: Earthy ([2]; 4 mg, score 0-5): 0.0 | Tobacco Typical Flavor Note: Haylike ([2]; 4 mg, score 0-5): 0.0 | Tobacco Typical Flavor Note: Roasted ([2]; 4 mg, score 0-5): 0.1 | Tobacco Typical Flavor Note: Smoky ([2]; 4 mg, score 0-5): 0.0 | Tobacco Typical Flavor Note: Tobacco ([2]; 4 mg, score 0-5): 0.6 | Tobacco Typical Flavor Note: Woody ([2]; 4 mg, score 0-5): 0.1 | Non-Tobacco Typical Flavor Note: Minty ([2]; 4 mg, score 0-5, listed as menthol): 4.9

Solubility (Solubility in solvents; alcohol, such as ethanol, and DMSO): readily soluble | Migration within the delivery system or packaging during storage [3]: does not migrate
Compound: CCNC(=O)C1CC(C)CCC1C(C)C (stereo not drawn) [WS-3, N-ethyl-2-(isopropyl)-5-methylcyclohexane carboxamide]
Cooling Sensation ([1]; 1.0 mg cooling agent): significant higher than both control products | Non-Tobacco Typical Flavor Note: Alcoholic ([2]; 1 mg, score 0-5): .0 | Non-Tobacco Typical Flavor Note: Cacao ([2]; 1 mg, score 0-5): .2 | Non-Tobacco Typical Flavor Note: Caramel ([2]; 1 mg, score 0-5): .1 | Non-Tobacco Typical Flavor Note: Citrus ([2]; 1 mg, score 0-5): .0 | Non-Tobacco Typical Flavor Note: Floral ([2]; 1 mg, score 0-5): .0 | Non-Tobacco Typical Flavor Note: Fruity ([2]; 1 mg, score 0-5): .1 | Non-Tobacco Typical Flavor Note: Honey ([2]; 1 mg, score 0-5): .1 | Non-Tobacco Typical Flavor Note: Licorice ([2]; 1 mg, score 0-5): .0 | Non-Tobacco Typical Flavor Note: Minty ([2]; 1 mg, score 0-5): .0 | Non-Tobacco Typical Flavor Note: Spicy ([2]; 1 mg, score 0-5): .1 | Non-Tobacco Typical Flavor Note: Vanilla ([2]; 1 mg, score 0-5): .3 | Tobacco Typical Flavor Note: Animalic ([2]; 1 mg, score 0-5): 0.1 | Tobacco Typical Flavor Note: Black Tea ([2]; 1 mg, score 0-5): 0.0 | Tobacco Typical Flavor Note: Earthy ([2]; 1 mg, score 0-5): 0.3 | Tobacco Typical Flavor Note: Haylike ([2]; 1 mg, score 0-5): 1.1 | Tobacco Typical Flavor Note: Roasted ([2]; 1 mg, score 0-5): 0.7 | Tobacco Typical Flavor Note: Smoky ([2]; 1 mg, score 0-5): 0.0 | Tobacco Typical Flavor Note: Tobacco ([2]; 1 mg, score 0-5): 3.9 | Tobacco Typical Flavor Note: Woody ([2]; 1 mg, score 0-5): 1.3 | Solubility in solvents versus humectants (Solubility in solvents; alcohol or DMSO versus propylene glycol): higher in the solvents than in humectants such as propylene glycol | Stability in the aerosol ([3]; high temperatures in rods of combustible aerosol provision systems): stable molecule and is not transformed and does not react with other chemicals in the aerosol | Overall flavor conclusion of smoking and sniffing analysis [4]: provides a cooling sensation without menthol flavor

Compound: CNC(=O)C(C)(C(C)C)C(C)C [WS-23]
Menthol-Family Flavor Intensity ([1]; 1.0 mg cooling agent): 2.2 | Tobacco Taste Intensity ([1]; 1.0 mg cooling agent): 3.9 | Non-Tobacco Typical Flavor Note: Alcoholic ([2]; 1 mg, score 0-5): .0 | Non-Tobacco Typical Flavor Note: Cacao ([2]; 1 mg, score 0-5): .1 | Non-Tobacco Typical Flavor Note: Caramel ([2]; 1 mg, score 0-5): .1 | Non-Tobacco Typical Flavor Note: Citrus ([2]; 1 mg, score 0-5): .2 | Non-Tobacco Typical Flavor Note: Floral ([2]; 1 mg, score 0-5): .1 | Non-Tobacco Typical Flavor Note: Fruity ([2]; 1 mg, score 0-5): .2 | Non-Tobacco Typical Flavor Note: Honey ([2]; 1 mg, score 0-5): .1 | Non-Tobacco Typical Flavor Note: Licorice ([2]; 1 mg, score 0-5): .0 | Non-Tobacco Typical Flavor Note: Minty ([2]; 1 mg, score 0-5): .7 | Non-Tobacco Typical Flavor Note: Spicy ([2]; 1 mg, score 0-5): .0 | Non-Tobacco Typical Flavor Note: Vanilla ([2]; 1 mg, score 0-5): .3 | Tobacco Typical Flavor Note: Animalic ([2]; 1 mg, score 0-5): 0.1 | Tobacco Typical Flavor Note: Black Tea ([2]; 1 mg, score 0-5): 0.1 | Tobacco Typical Flavor Note: Earthy ([2]; 1 mg, score 0-5): 0.3 | Tobacco Typical Flavor Note: Haylike ([2]; 1 mg, score 0-5): 0.9 | Tobacco Typical Flavor Note: Roasted ([2]; 1 mg, score 0-5): 0.7 | Tobacco Typical Flavor Note: Smoky ([2]; 1 mg, score 0-5): 0.1 | Tobacco Typical Flavor Note: Tobacco ([2]; 1 mg, score 0-5): 3.5 | Tobacco Typical Flavor Note: Woody ([2]; 1 mg, score 0-5): 1.0 | Non-Tobacco Typical Flavor Note: Minty ([2]; 1 mg, score 0-5, listed as WS23): 0.7 | Overall flavor conclusion of smoking and sniffing analysis [4]: very low, but detectable minty/menthol flavor
